The results in this text go back to PubChem BioAssay AID330 (DTP/NCI, 2004).

“And” between values parts separate entries of the source, which are not always exact repeats. Equal values may be shown once. Toxic doses and inconclusive results are not listed.

The assay deals with P388 leukemia ip, CD2F1 mice, survival T/C. The assay can be described thus: NCI In Vivo Anticancer Drug Screen. Data for tumor model P388 Leukemia (intraperitoneal) in CD2F1 (CDF1) mice. Conditions: endpoint: median survival time, higher = longer survival. A digest of the protocol: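 Mice carrying the transplanted tumor received test compound or vehicle. Survival was recorded in each group, and the value is the treated-group measurement divided by that of the vehicle-treated control group.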

[1] abbreviates: dose: 25.0 mg/kg/injection, schedule: Q01DX009 (ip), vehicle: saline.
Where [2] appears, read: dose: 50.0 mg/kg/injection, schedule: Q01DX009 (ip), vehicle: saline.
Setting [3] is: dose: 100.0 mg/kg/injection, schedule: Q01DX009 (ip), vehicle: saline.
Setting [4] is: dose: 200.0 mg/kg/injection, schedule: Q01DX009 (ip), vehicle: saline with Tween-80.

For the molecule `Nc1ncnc2c1ncn2C1OC(CO)C(O)C1O` (stereo not given), the T/C was 113 % of control (dose: 1.25 mg/kg/injection, schedule: Q03HX016 (ip), vehicle: saline); 116 % of control (dose: 1.56 mg/kg/injection, schedule: Q01DX009 (ip), vehicle: saline); 122 % of control (dose: 2.5 mg/kg/injection, schedule: Q03HX016 (ip), vehicle: saline); 122 % of control (dose: 3.12 mg/kg/injection, schedule: Q01DX009 (ip), vehicle: saline); 119 % of control and 104 % of control (dose: 6.25 mg/kg/injection, schedule: Q01DX009 (ip), vehicle: saline); 114 % of control (dose: 9.0 mg/kg/injection, schedule: Q01DX009 (ip), vehicle: saline with Tween-80). The T/C was 118 % of control (dose: 12.5 mg/kg/injection, schedule: Q01DX009 (ip), vehicle: saline with Tween-80); 103 % of control (dose: 12.5 mg/kg/injection, schedule: Q01DX009 (ip), vehicle: saline); 110 % of control (dose: 12.5 mg/kg/injection, schedule: Q03HX016 (ip), vehicle: Klucel (hydroxypropylcellulose) (HPC)); 120 % of control (dose: 14.0 mg/kg/injection, schedule: Q01DX009 (ip), vehicle: saline with Tween-80); 103 % of control (dose: 20.0 mg/kg/injection, schedule: Q01DX009 (ip), vehicle: saline); 122 % of control (dose: 20.0 mg/kg/injection, schedule: Q03HX016 (ip), vehicle: saline). The T/C is, setting by setting: under setting [1], 103 % of control; (dose: 25.0 mg/kg/injection, schedule: Q03HX016 (ip), vehicle: Klucel (hydroxypropylcellulose) (HPC)) 120 % of control; (dose: 25.0 mg/kg/injection, schedule: Q04DX003 (ip), vehicle: Klucel (hydroxypropylcellulose) (HPC)) 105 % of control; (dose: 25.0 mg/kg/injection, schedule: Q04DX003 (ip), vehicle: saline sonified) 118 % of control; (dose: 32.0 mg/kg/injection, schedule: Q01DX009 (ip), vehicle: Klucel (hydroxypropylcellulose) (HPC)) 100 % of control and 102 % of control; (dose: 40.0 mg/kg/injection, schedule: Q01DX009 (ip), vehicle: saline) 115 % of control and 118 % of control. The T/C by setting is: (dose: 50.0 mg/kg/injection, schedule: Q01DX009 (ip), vehicle: saline sonified) 123 % of control; under setting [2], 99 % of control; (dose: 50.0 mg/kg/injection, schedule: Q04DX003 (ip), vehicle: Klucel (hydroxypropylcellulose) (HPC)) 97 % of control; (dose: 50.0 mg/kg/injection, schedule: Q04DX003 (ip), vehicle: saline sonified) 122 % of control; (dose: 64.0 mg/kg/injection, schedule: Q01DX009 (ip), vehicle: Klucel (hydroxypropylcellulose) (HPC)) 102 % of control and 97 % of control; (dose: 75.0 mg/kg/injection, schedule: Q01DX009 (ip), vehicle: saline sonified) 95 % of control. Besides, the T/C (dose: 75.0 mg/kg/injection, schedule: Q01DX009 (ip), vehicle: saline with Tween-80) is 72 % of control; the T/C (dose: 78.6 mg/kg/injection, schedule: Q01DX005 (ip), vehicle: water) is 106 % of control; the T/C (dose: 78.6 mg/kg/injection, schedule: Q01DX009 (ip), vehicle: water) is 100 % of control; the T/C (dose: 80.0 mg/kg/injection, schedule: Q01DX009 (ip), vehicle: saline) was 122 % of control; the T/C under setting [3] is 122 % of control and 73 % of control; the T/C (dose: 100.0 mg/kg/injection, schedule: Q04DX003 (ip), vehicle: Klucel (hydroxypropylcellulose) (HPC)) was 96 % of control. Besides, the T/C reads like this: (dose: 100.0 mg/kg/injection, schedule: Q04DX003 (ip), vehicle: saline sonified) 110 % of control; (dose: 118.0 mg/kg/injection, schedule: Q01DX005 (ip), vehicle: water) 99 % of control; (dose: 118.0 mg/kg/injection, schedule: Q01DX009 (ip), vehicle: water) 99 % of control; (dose: 128.0 mg/kg/injection, schedule: Q01DX009 (ip), vehicle: Klucel (hydroxypropylcellulose) (HPC)) 101 % of control and 93 % of control; (dose: 177.0 mg/kg/injection, schedule: Q01DX005 (ip), vehicle: water) 99 % of control; (dose: 177.0 mg/kg/injection, schedule: Q01DX009 (ip), vehicle: water) 111 % of control. In addition, the T/C under setting [4] is 115 % of control; the T/C (dose: 200.0 mg/kg/injection, schedule: Q03HX016 (ip), vehicle: Klucel (hydroxypropylcellulose) (HPC)) was 154 % of control; the T/C (dose: 200.0 mg/kg/injection, schedule: Q04DX003 (ip), vehicle: Klucel (hydroxypropylcellulose) (HPC)) was 98 % of control; the T/C (dose: 200.0 mg/kg/injection, schedule: Q04DX003 (ip), vehicle: saline sonified) was 110 % of control; the T/C (dose: 256.0 mg/kg/injection, schedule: Q01DX009 (ip), vehicle: Klucel (hydroxypropylcellulose) (HPC)) is 99 % of control and 88 % of control; the T/C (dose: 264.0 mg/kg/injection, schedule: Q04DX003 (ip), vehicle: saline with Tween-80) was 121 % of control. In addition, the T/C by setting is: (dose: 266.0 mg/kg/injection, schedule: Q01DX005 (ip), vehicle: water) 115 % of control; (dose: 266.0 mg/kg/injection, schedule: Q01DX009 (ip), vehicle: saline with Tween-80) 121 % of control; (dose: 266.0 mg/kg/injection, schedule: Q01DX009 (ip), vehicle: water) 113 % of control; (dose: 400.0 mg/kg/injection, schedule: Q01DX005 (ip), vehicle: water) 108 % of control; (dose: 400.0 mg/kg/injection, schedule: Q01DX009 (ip), vehicle: saline with Tween-80) 121 % of control; (dose: 400.0 mg/kg/injection, schedule: Q01DX009 (ip), vehicle: saline) 122 % of control. Besides, the T/C reads like this: (dose: 400.0 mg/kg/injection, schedule: Q01DX009 (ip), vehicle: water) 117 % of control; (dose: 400.0 mg/kg/injection, schedule: Q03HX016 (ip), vehicle: Klucel (hydroxypropylcellulose) (HPC)) 183 % of control; (dose: 400.0 mg/kg/injection, schedule: Q04DX003 (ip), vehicle: saline with Tween-80) 117 % of control; (dose: 512.0 mg/kg/injection, schedule: Q01DX009 (ip), vehicle: Klucel (hydroxypropylcellulose) (HPC)) 101 % of control and 91 % of control; (dose: 600.0 mg/kg/injection, schedule: Q01DX009 (ip), vehicle: saline sonified) 86 % of control; (dose: 600.0 mg/kg/injection, schedule: Q01DX009 (ip), vehicle: saline with Tween-80) 111 % of control. The T/C reads like this: (dose: 900.0 mg/kg/injection, schedule: Q01DX009 (ip), vehicle: saline with Tween-80) 94 % of control; (dose: 1000.0 mg/kg/injection, schedule: Q01DX009 (oral), vehicle: saline with Tween-80) 101 % of control; (dose: 1.3 micrograms/kg/injection, schedule: Q#A X Z (ip), vehicle: water) 91 % of control; (dose: 1500.0 mg/kg/injection, schedule: Q01DX009 (oral), vehicle: saline with Tween-80) 104 % of control; (dose: 2000.0 mg/kg/injection, schedule: Q01DX009 (oral), vehicle: saline with Tween-80) 100 % of control; (dose: 13.4 micrograms/kg/injection, schedule: Q#A X Z (ip), vehicle: water) 98 % of control. The T/C is 98 % of control (dose: 134.0 micrograms/kg/injection, schedule: Q#A X Z (ip), vehicle: water) and 100 % of control (dose: 1340.0 micrograms/kg/injection, schedule: Q#A X Z (ip), vehicle: water).

Consider `CCC(C)n1c(C)nc2cc(C(F)(F)F)cc(N)c21` (stereo not given), for which the T/C is, setting by setting: (dose: 50.0 mg/kg/injection, schedule: Q01DX009 (ip), vehicle: saline + alcohol) 99 % of control; (dose: 100.0 mg/kg/injection, schedule: Q01DX009 (ip), vehicle: saline + alcohol) 99 % of control.

For the molecule `CCSC(=O)c1cc(C(=O)SCC)cc(C(C)(C)C)c1`, the T/C reads like this: under setting [1], 100 % of control and 105 % of control; (dose: 50.0 mg/kg/injection, schedule: Q01DX009 (ip), vehicle: saline with Tween-80) 100 % of control; under setting [2], 98 % of control and 95 % of control; (dose: 100.0 mg/kg/injection, schedule: Q01DX009 (ip), vehicle: saline with Tween-80) 114 % of control; under setting [3], 98 % of control and 101 % of control; under setting [4], 124 % of control. Where the note is “dose: 200.0 mg/kg/injection, schedule: Q01DX009 (ip), vehicle: saline”, the T/C was 107 % of control and 97 % of control.

Consider `N#CC(C(N)=O)C1(C(C#N)C(N)=O)C(=O)Nc2ccccc21` (stereo not given), for which the T/C runs as follows: (dose: 25.0 mg/kg/injection, schedule: Q01DX005 (ip), vehicle: Klucel (hydroxypropylcellulose) (HPC)) 103 % of control; (dose: 50.0 mg/kg/injection, schedule: Q01DX005 (ip), vehicle: Klucel (hydroxypropylcellulose) (HPC)) 100 % of control; (dose: 100.0 mg/kg/injection, schedule: Q01DX005 (ip), vehicle: Klucel (hydroxypropylcellulose) (HPC)) 98 % of control; (dose: 200.0 mg/kg/injection, schedule: Q01DX005 (ip), vehicle: Klucel (hydroxypropylcellulose) (HPC)) 100 % of control.
